The target in one data set is T1, Des1 (h) (Homo sapiens, UniProt O15121).
T1 construct: endogenous in cells; host or cells: parental Jurkat cells
T1 sequence (O15121 1-323): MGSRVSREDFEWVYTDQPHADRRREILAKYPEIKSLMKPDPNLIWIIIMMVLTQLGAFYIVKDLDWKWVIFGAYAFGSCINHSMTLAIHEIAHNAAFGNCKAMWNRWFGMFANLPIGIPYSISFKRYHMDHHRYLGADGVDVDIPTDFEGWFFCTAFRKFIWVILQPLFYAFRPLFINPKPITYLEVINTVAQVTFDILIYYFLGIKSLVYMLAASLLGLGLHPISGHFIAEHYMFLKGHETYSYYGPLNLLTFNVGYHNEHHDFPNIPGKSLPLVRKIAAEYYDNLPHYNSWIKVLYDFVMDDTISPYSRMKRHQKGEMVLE
As to the kind of experiment: Measurement of Dihydroceramide Desaturase-1 (Des-1) activity in intact Jurkat cells labeled with DhCer-C6-NBD (HPLC). It counts as cell-based. Conditions: for inhibition at 1 µM: Jurkat cells. Put shortly: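 Intact parental Jurkat cells in 0.5% serum medium were labelled with DhCer-C6-NBD; cells harvested at 500×g and ceramides extracted. NBD-labelled substrate and product resolved by C18 reverse-phase HPLC and quantified by fluorescence (ex 465/em 530 nm) as a measure of Des-1 activity.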

A short description of data set [1]: T1/2 Human Liver Microsomes. It counts as in vitro ADME. An excerpt: Some non-limiting illustrative examples are presented below in Table 3-1.
The subject of data set [2] is Connective Tissue Growth Factor (CTGF) gene expression. Description: Real time quantitative PCR in TGFβ-stimulated human hepatic stellate cells (LX2) to detect CTGF gene expression. It counts as cell-based. The conditions noted are these: CTGF mRNA in TGFβ-stimulated LX2 cells vs vehicle control; for inhibition at 5 µM: LX-2, 5 μM; for inhibition at 1 µM: LX-2, 1 μM; for inhibition at 10 µM: LX-2, 10 μM. Here is the method: Real Time Quantitative Polymerase Chain Reaction in Human Hepatic Stellate Cells (LX2) to Detect Connective Tissue Growth Factor (CTGF) Gene Expression The hepatic stellate cell line, LX2 was maintained in DMEM (LifeTechnologies) with 2% heat-inactivated FBS, 100U penicillin (LifeTechnologies), 0.1 mg/mL streptomycin (LifeTechnologies), and 2 mM L-glutamine (LifeTechnologies) at 37° C. with 5% CO2. Cells were seeded into 6-well plates (200,000 cells per well, 2 mLs media) and grown overnight. The cells were changed to 2 mLs 0.5% FBS media for 24 hours prior to treatment. Treatments were added in 2 mLs fresh 0.5% FBS media (vehicle control, long/mL TGFβ alone (R&D Systems), 10 ng/mL TGFβ+inhibitors) and incubated for 24 hours. […] RNA was extracted using Qiagen RNeasy kit (cat #74104), according to manufacturer's instructions. RNA (1 μg) was used to generate cDNA using the Qiagen Quantitect Reverse Transcription Kit (cat #205311), and stored at -20° C. cDNA was diluted (1:25 final) and combined with Sybr Green (Qiagen cat #204143), forward and reverse primers (50 ng each) and run on Real Time PCR Thermocycler machine (RG-6000, Corbett) with the following PCR conditions: Hold 1: 50° C. for 2 min; Hold 2: 95° C. for 15 min; Cycling: 45 cycles of: 95° C. for 30 sec, 58° C. for 21 sec, 72° C. for 15 sec, Hold 3: 72° C. for 30 sec, Melt: 72° C. to 99° C. GAPDH primers (Forward: [NT]; Reverse: [NT] primers (Forward: [NT]; Reverse: [NT] primers available from Origene, cat #HP205671)].

The mark [3] stands for this setting: Table 3-1, comparison of W ring with and without nitrogen, read-out: Des1 IC50.
Where [4] appears, read: intact Jurkat cells, given as concentration range, or <X / >X if measured at one concentration X only, read-out: Des1 (h) Jurkat IC50.

Like-named read-outs stand apart in the source and are kept apart here.

The IC50 is the concentration that gives 50% inhibition. In general, half-life refers to how long it takes for the measured level to halve. Lower therefore signals fast loss. Consider `N=C(NO)c1ccc(Nc2ncc(-c3ccc(C(F)(F)F)cc3)o2)cc1`, for which the IC50 on Des1 (h) (setting [3]) lay in the range of 800 to 1000 nM. Moreover, in data set [1], the half-life lay within 0.5 to 0.667 h.

For the molecule `N/C(=N\O)c1ccc(Nc2ncn(-c3ccc(C(F)(F)F)cc3)n2)cn1` [drawing 416], the IC50 on Des1 (h) (setting [3]) is 70 to 80 nM. This molecule also came in with a half-life in data set [1] of 2.83 to 3 h.

Usually inhibition stands for the drop in the measured response relative to a control, in per cent. The low end stands for a response near the control, the high end for a response far below the control. As to `N/C(=N/O)c1cnc(Nc2ncc(-c3ccc(Cl)cn3)o2)cn1` [Compound 102, 5-((5-(5-Chloropyridin-2-yl)oxazol-2-yl)amino)-N′-hydroxypyrazine-2-carboximidamide], the IC50 on Des1 (h) (setting [4]) is less than 1000 nM. Besides, the inhibition at 5 µM in data set [2] is 70 to 80%.

`Oc1cnc(Nc2ncc(-c3ccc(C(F)(F)F)cc3)o2)cc1O` [Example 29, 6-((5-(4-(Trifluoromethyl)phenyl)oxazol-2-yl)amino)pyridine-3,4-diol]: on Des1 (h) (setting [4]), the IC50 was less than 1000 nM. In data set [2], this molecule came in with an inhibition at 1 µM greater than 90% and an inhibition at 10 µM greater than 90%.

As for `Cn1nc(Nc2ccc(/C(N)=N/O)nc2)cc1-c1ccc(C(F)(F)F)cn1` [Compound 109, N′-Hydroxy-5-((1-methyl-5-(5-(trifluoromethyl)pyridin-2-yl)-1H-pyrazol-3-yl)amino)picolinimidamide], the IC50 on Des1 (h) (setting [4]) is less than 1000 nM. Also, the inhibition at 5 µM in data set [2] is greater than 90%.

For `N=C(NO)c1ccc(Nc2ncc(-c3ccc(C(F)(F)F)cc3)o2)cn1` [drawing 414], on Des1 (h) (setting [3]), the IC50 lay within 100 to 200 nM. Also, the half-life in data set [1] lay within 1.5 to 1.67 h.

For `N/C(=N\O)c1ccc(Nc2ncc(-c3ccc(OC(F)(F)F)cc3)o2)cn1` [Compound 118, N′-Hydroxy-5-((5-(4-(trifluoromethoxy)phenyl)oxazol-2-yl)amino)picolinimidamide], the IC50 on Des1 (h) (setting [4]) is less than 1000 nM. Also, in data set [2], the inhibition at 1 µM fell in the range of 50 to 60% and the inhibition at 10 µM lay within 70 to 80%.

For `O=C(NCC(O)CO)c1ccc(Nc2ncc(-c3ccc(C(F)(F)F)cc3)o2)cn1` (stereo not shown), the half-inhibitory concentration (IC50) on Des1 (h) (setting [3]) was 1 to 10 nM. Moreover, in data set [1], the half-life lay within 3.5 to 3.67 h.

Take `N=C(NO)c1ccc(Nc2ncc(-c3ccc(C(F)(F)F)cn3)o2)cn1` [drawing 417]: the IC50 on Des1 (h) (setting [3]) was 400 to 500 nM. Further, the half-life in data set [1] lay in the range of 3.17 to 3.33 h.

Regarding `N/C(=N\O)c1cnc(Nc2ccn(-c3ccc(C(F)(F)F)cn3)n2)cn1` [Compound 112, N′-Hydroxy-5-((1-(5-(trifluoromethyl)pyridin-2-yl)-1H-pyrazol-3-yl)amino)pyrazine-2-carboximidamide], on Des1 (h) (setting [4]), the IC50 is less than 1000 nM. In addition, the inhibition at 1 µM in data set [2] was greater than 90%.

Turning to `N/C(=N\O)c1ccc(Nc2ncn(-c3ccc(C(F)(F)F)cc3)n2)cn1` [Example 24, N′-Hydroxy-5-((1-(4-(trifluoromethyl)phenyl)-1H-1,2,4-triazol-3yl)amino)picolinimidamide], on Des1 (h) (setting [4]), the IC50 lay within 10 to 100 nM. For the same molecule, the inhibition at 5 µM in data set [2] lay within 50 to 60%.

In the case of `N/C(=N/O)c1cnc(Nc2ncc(-c3ccc(OC(F)(F)F)cc3)o2)cn1` [Example 70, N′-Hydroxy-5-((5-(4-(trifluoromethoxy)phenyl)oxazol-2-yl)amino)pyrazine-2-carboximidamide], the IC50 on Des1 (h) (setting [4]) was less than 1000 nM. Moreover, the inhibition at 5 µM in data set [2] was greater than 90%.

For `N/C(=N/O)c1ccc(Nc2cnn(-c3ccc(Cl)cn3)c2)cn1` [Compound 103, 5-((1-(5-Chloropyridin-2-yl)-1H-pyrazol-4-yl)amino)-N′-hydroxypicolinimidamide], the half-maximal inhibitory concentration (IC50) on Des1 (h) (setting [4]) is less than 1000 nM. In addition, the inhibition at 5 µM in data set [2] lay in the range of 70 to 80%.

`N/C(=N/O)c1ccc(Nc2cc(-c3ccc(C(F)(F)F)cn3)no2)cn1` [Example 75, N′-Hydroxy-5-((3-(5-(trifluoromethyl)pyridin-2-yl)isoxazol-5-yl)amino)picolinimidamide]: the IC50 on Des1 (h) (setting [4]) is less than 1000 nM. This molecule also showed an inhibition at 5 µM in data set [2] greater than 90%.

For the molecule `N/C(=N\O)c1ccc(Nc2nc(-c3ccc(C(F)(F)F)cc3)no2)cn1` [Example 82, N′-hydroxy-5-((3-(4-(trifluoromethyl)phenyl)-1,2,4-oxadiazol-5-yl)amino)picolinimidamide], the IC50 on Des1 (h) (setting [4]) was less than 1000 nM. For the same molecule, the inhibition at 5 µM in data set [2] was greater than 90%.

On to `N/C(=N/O)c1ccc(Nc2ncn(-c3ccc(C(F)(F)F)cn3)n2)cn1` [Compound 107, N′-Hydroxy-5-((1-(5-(trifluoromethyl)pyridin-2-yl)-1H-1,2,4-triazol-3-yl)amino)picolinimidamide], for which the IC50 at Des1 (h) (setting [4]) is less than 1000 nM. Further, in data set [2], the inhibition at 5 µM is greater than 90%.

Turning to `N/C(=N\O)c1ccc(Nc2cc(-c3ccc(C(F)(F)F)cc3)no2)cn1` [Example 89, N′-hydroxy-5-((3-(4-(trifluoromethyl)phenyl)isoxazol-5-yl)amino)picolinimidamide], the IC50 on Des1 (h) (setting [4]) was less than 1000 nM. Besides, the inhibition at 5 µM in data set [2] is greater than 90%.

`N/C(=N\O)c1ccc(Nc2ncc(-c3ccc(OC(F)(F)F)cn3)o2)cn1` [Compound 99, N′-Hydroxy-5-((5-(5-(trifluoromethoxy)pyridin-2-yl)oxazol-2-yl)amino)picolinimidamide]: the inhibition at 1 µM on Des1 (h) was found to be 47%. Further, the 50% inhibitory concentration (IC50) at Des1 (h) (setting [4]) is greater than 1000 nM. In data set [2], this molecule yielded an inhibition at 1 µM of 1 to 10% and an inhibition at 10 µM of 70 to 80%.

`N/C(=N\O)c1ccc(Nc2nc(-c3ccc(C(F)(F)F)cn3)no2)cn1` [Example 84, N′-Hydroxy-5-((3-(5-(trifluoromethyl)pyridin-2-yl)-1,2,4-oxadiazol-5-yl)amino)picolinimidamide]: the inhibition at 1 µM on Des1 (h) was 45%. The IC50 at Des1 (h) (setting [4]) was greater than 1000 nM. Further, the inhibition at 5 µM in data set [2] lay in the range of 80 to 90%.

Turning to `N/C(=N\O)c1ccc(Nc2ncc(-c3ccc(Cl)cn3)o2)cn1` [Compound 90, 5-((5-(5-Chloropyridin-2-yl)oxazol-2-yl)amino)-N′-hydroxypicolinimidamide], on Des1 (h) (setting [4]), the IC50 was less than 1000 nM. This molecule gave an inhibition at 5 µM in data set [2] greater than 90%.

As for `N/C(=N\O)c1ccc(Nc2cnn(-c3ccc(C(F)(F)F)cc3)c2)cn1` [Compound 113, N′-Hydroxy-5-((1-(4-(trifluoromethyl)phenyl)-1H-pyrazol-4-yl)amino)picolinimidamide], at Des1 (h) (setting [4]), the IC50 is less than 1000 nM. In data set [2], this molecule displayed an inhibition at 5 µM greater than 90%.

Take `N/C(=N\O)c1nnc(Nc2ncc(-c3ccc(C(F)(F)F)cc3)o2)cc1O` [Example 42, N′,4-Dihydroxy-6-((5-(4-(trifluoromethyl)phenyl)oxazol-2-yl)amino)pyridazine-3-carboximidamide]: the IC50 at Des1 (h) (setting [4]) is 1 to 10 nM. In data set [2], this molecule returned an inhibition at 1 µM of 10 to 20% and an inhibition at 10 µM of 40 to 50%.

Turning to `N/C(=N\O)c1ccc(Nc2ncc(-c3ccc(C(F)(F)F)cc3)o2)nn1` [drawing 418], the IC50 on Des1 (h) (setting [3]) is 1 to 10 nM. In addition, in data set [1], the half-life is 2.5 to 2.83 h.

With `O=c1cc(Nc2ncc(-c3ccc(C(F)(F)F)cc3)o2)ccn1O` [Example 23, 1-(Hydroxy)-4-((5-(4-(trifluoromethyl)phenyl)oxazol-2-yl)amino)pyridin-2(1H)-one], the IC50 on Des1 (h) (setting [4]) lay in the range of 1 to 10 nM. Also, in data set [2], the inhibition at 1 µM was 30 to 40% and the inhibition at 10 µM was greater than 90%.

The values above are taken from patent publication US12448371B2, “Inhibitor compounds” (Cincera Therapeutics Pty Ltd, priority 2019, dated 2025).
